This is an account of results in US5919784A, “Heterocyclic aminomethyl compounds” (Adir Et Compagnie, priority 1996, dated 1999).

One assay has as its target T1, human D4.4 receptor (Homo sapiens, UniProt P21917).
T1 construct: purchased Receptor Biology Inc. (Md., USA); host or cells: CHO cells (transfected), membranes
T1 sequence (P21917 1-419): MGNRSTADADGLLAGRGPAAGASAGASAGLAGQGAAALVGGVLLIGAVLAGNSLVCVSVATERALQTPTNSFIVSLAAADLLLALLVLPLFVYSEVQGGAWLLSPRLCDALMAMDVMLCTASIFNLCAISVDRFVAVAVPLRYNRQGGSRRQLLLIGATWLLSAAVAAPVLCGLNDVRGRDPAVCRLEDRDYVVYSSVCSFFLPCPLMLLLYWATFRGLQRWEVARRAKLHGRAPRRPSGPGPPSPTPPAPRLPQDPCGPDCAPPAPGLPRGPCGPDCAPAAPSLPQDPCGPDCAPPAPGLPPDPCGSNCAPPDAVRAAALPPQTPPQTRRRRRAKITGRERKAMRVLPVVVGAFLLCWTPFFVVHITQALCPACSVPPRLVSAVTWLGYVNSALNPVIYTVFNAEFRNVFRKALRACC
In words: Antagonism at human D4.4 receptors, [35S]GTPγS binding (G protein activation) stimulated by dopamine. It is filed as biochemical. The conditions noted are these: antagonism of dopamine-stimulated [35S]GTPγS binding; antagonist preincubated with fixed concentration of dopamine 30 min; CHO membranes; read-out: Kb (antagonist potency constant). The procedure: The efficacy was determined by measuring the activation of G proteins by stimulating the binding of [^35 S]GTPγS (NEN, Les Ulis, France). The membranes prepared from CHO cells transfected with the human D4.4 receptor were purchased from Receptor Biology Inc. (Md., USA). The membranes (50 μg of membrane protein) are incubated in triplicate with 0.1 nM [^35 S]GTPγS and the cold ligand in a final volume of 0.5 ml for 20 min at 25° C. The incubation buffer contains 20 mM HEPES (pH 7.4), 3 μM GDP, 3 mM MgCl2 and 100 mM NaCl. At the end of the incubation, the incubation medium is filtered through WHATMAN GF/B filters impregnated with water and washed three times with 2 ml of cooled buffer. The radioactivity retained on the filters is determined by liquid scintillation counting. The binding isotherms are analyzed by nonlinear regression using `PRISM` software (GraphPad Software Inc., S. Diego, USA) to determine EC50 and efficacy (Emax) values. The efficacy is expressed as a percentage of the stimulation of the binding of [^35 S]GTPγS induced by dopamine.
For the tests of antagonism, the membranes are preincubated with the antagonist at a fixed concentration of dopamine for 30 min before adding the [^35 S]GTPγS. […]
in which [Antagonist] is the antagonist concentration and EC50 is the EC50 determined in the absence of antagonist (dopamine alone).
Background: GTPγS resists hydrolysis and so accumulates on activated G proteins.

The test system of a further assay is D4 receptors. The note with it: literature; cited from earlier work.

Usually Kb stands for the equilibrium dissociation constant of an antagonist, usually derived from a functional assay.

Where a name gives a salt, the structure may show the parent alone.

In the case of `COc1ccccc1N1CCN(Cc2ccc3c(c2)sc(=O)n3C)CC1` [Example 1, 3-METHYL-6-[(4-(2-METHOXYPHENYL)-1-PIPERAZINYL)METHYL]-BENZOTHIAZOLINONE HYDROCHLORIDE], the Kb at human D4.4 receptor worked out at 2.39 ± 1.1 nM. Still for that read-out and setting: for `Cn1c(=O)sc2cc(CN3CCN(c4ccccc4F)CC3)ccc21` [Example 3, 3-METHYL-6-[(4-(2-FLUOROPHENYL)-1-PIPERAZINYL)METHYL]-BENZOTHIAZOLINONE] the value was 16.1 ± 5 nM. `CN1CCN(C2=Nc3cc(Cl)ccc3Nc3ccccc32)CC1` [clozapine]: the “affinity for the D4 receptors (in words)” value with D4 receptors is “high affinity”. Take `NC[C@H](O)c1ccc(O)c(O)c1` [noradrenaline]: in the assay with D4 receptors, the “affinity for the D4 receptors (in words)” value was “high affinity”.
